These results are taken from article PMC3751846, “BET Inhibition Silences Expression of MYCN and BCL2 and Induces Cytotoxicity in Neuroblastoma Tumor Models” (PLoS ONE, 2013).

Read-outs that look alike come from different tables or passages of the source.

What all share (experiment): cells
Experiment [1] has as its system SK-N-AS. The arrangement: species or system neuroblastoma cell lines; 6 day growth-death assay, CellTiter-Fluor read-out, mid-point of growth window (DMSO to T0). The settings on record: Homo sapiens, SK-N-AS, 144 h; CellTiter-Fluor, 6 days; read-out: gIC50 CellTiter-Fluor. Here is the method: (§1) Cell line growth-death assays were performed as described, with a few modifications. Briefly, cells were seeded into 384-well or 96-well plates at a density optimized for 6 days of growth. The following day, T0 measurements were taken using CellTiter-Glo (CTG; Promega, Madison, WI), CellTiter-Fluor (Promega), or CyQuant Direct (Life Technologies), following the manufacturer’s instructions. Plates were read on an Envision (PerkinElmer, Waltham, MA), Safire 2 (Tecan, Durham, NC), or SpectraMax Gemini EM (Molecular Devices, Sunnyvale, CA) plate reader. […] Cells were incubated for 6 days and developed as described above. Results were plotted as a percentage of the T0 value, normalized to 100%, versus concentration of compound. A 4-parameter equation was used to generate concentration response curves. Growth IC50 (gIC50) values were calculated at the mid-point of the growth window (between DMSO and T0 values). Ymin-T0 values were calculated by subtracting the T0 value (100%) from the Ymin value on the curve, and are a measure of net population cell growth or death.

Experiment [2] relates to SK-N-BE(2). The arrangement: species or system neuroblastoma cell lines; 6 day growth-death assay, CellTiter-Fluor read-out, mid-point of growth window (DMSO to T0). The note with it: Homo sapiens, SKNBE2, 144 h; CellTiter-Fluor, 6 days; read-out: gIC50 CellTiter-Fluor. Here is the method:
as §1

For experiment [3], the system named is CHP-212. More on the design: species or system neuroblastoma cell lines; 6 day growth-death assay, CellTiter-Fluor read-out, mid-point of growth window (DMSO to T0). The settings on record: Homo sapiens, CHP-212, 144 h; CellTiter-Fluor, 6 days; read-out: gIC50 CellTiter-Fluor. The protocol: as §1
Experiment [4] relates to LA1-5s. More on the design: species or system neuroblastoma cell lines; 6 day growth-death assay, CellTiter-Fluor read-out, mid-point of growth window (DMSO to T0). The note with it: Neuroblastoma cell, 144 h; CellTiter-Fluor, 6 days; read-out: gIC50 CellTiter-Fluor. The protocol:
as §1

For experiment [5], the system named is SK-N-AS. The arrangement: species or system neuroblastoma cell lines; 6 day growth-death assay, CyQuant Direct read-out, mid-point of growth window (DMSO to T0). The note with it: Homo sapiens, SK-N-AS, 144 h; CyQuant, 6 days; read-out: gIC50 CyQuant. The protocol: as §1
The subject of experiment [6] is SK-N-BE(2). The arrangement: species or system neuroblastoma cell lines; 6 day growth-death assay, CyQuant Direct read-out, mid-point of growth window (DMSO to T0). The note with it: Homo sapiens, SKNBE2, 144 h; CyQuant, 6 days; read-out: gIC50 CyQuant. Here is the method: as §1
The subject of experiment [7] is CHP-212. More on the design: species or system neuroblastoma cell lines; 6 day growth-death assay, CyQuant Direct read-out, mid-point of growth window (DMSO to T0). The settings on record: Homo sapiens, CHP-212, 144 h; CyQuant, 6 days; read-out: gIC50 CyQuant. The protocol:
as §1

Experiment [8] deals with LA1-5s. More on the design: species or system neuroblastoma cell lines; 6 day growth-death assay, CyQuant Direct read-out, mid-point of growth window (DMSO to T0). The settings on record: Neuroblastoma cell, 144 h; CyQuant, 6 days; read-out: gIC50 CyQuant. Here is the method:
as §1

Turning to `CC(=O)N1c2ccc(-c3ccc(C(=O)O)cc3)cc2[C@H](Nc2ccc(Cl)cc2)C[C@@H]1C` [I-BET726], the GI50 worked out at 130 nM in the experiment on SK-N-AS [1]; 20 nM in the experiment with SK-N-BE(2) [2]; 30 nM with CHP-212 [3]; 25 nM in the experiment with LA1-5s [4]; 135 nM in the experiment with SK-N-AS [5]; 80 nM in the experiment on SK-N-BE(2) [6]. The GI50 in the experiment on CHP-212 [7] and in the experiment with LA1-5s [8] was 10 nM each time.
